# According to article PMC3967968 (Molecular Biology of the Cell, 2014):
# T1: MBP-fused Drosophila EB1 (Drosophila, UniProt Q9XZ57 1-290)
# T1 sequence (looked up): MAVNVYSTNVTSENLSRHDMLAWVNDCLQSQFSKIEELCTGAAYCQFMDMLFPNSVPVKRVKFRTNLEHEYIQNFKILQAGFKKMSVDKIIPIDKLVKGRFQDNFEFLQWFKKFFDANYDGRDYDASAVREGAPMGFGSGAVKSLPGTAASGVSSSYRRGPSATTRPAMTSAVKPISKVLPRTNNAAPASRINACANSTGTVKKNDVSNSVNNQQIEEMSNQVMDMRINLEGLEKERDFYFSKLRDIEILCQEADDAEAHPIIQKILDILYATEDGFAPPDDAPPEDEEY
# Tests used:
# human EB1 = conditions: read-out: Kd with human EB1, ref Honnappa et al. 2005; cited from earlier work
# MBP-fused Drosophila EB1 = biological target: T1, MBP-fused Drosophila EB1; assay: ITC
Molecule,Kd (human EB1) [µM],Kd (MBP-fused Drosophila EB1) [µM]
adenomatous polyposis coli protein: native human EB1-interacting protein,~5,
RTRGRSRIPRWVGRRG [aptamer Perfect peptide],,~0.57
